# Publication PMC4076210, “Discovery of Novel AKT Inhibitors with Enhanced Anti-Tumor Effects in Combination with the MEK Inhibitor” (PLoS ONE, 2014)
# Like-named read-outs stand apart in the source and are kept apart here.
# Tests used:
# FGFR3(h) = biological target: T1, FGFR3(h) (Homo sapiens, UniProt P22607); test: Kinase panel; assay type: biochemical
# T1 construct: purchased Millipore KinaseProfiler
# Haspin(h) = biological target: T2, Haspin(h) (Homo sapiens, UniProt Q8TF76); test: Kinase panel; assay type: biochemical
# T2 construct: purchased Millipore KinaseProfiler
# T2 sequence (Q8TF76 1-798): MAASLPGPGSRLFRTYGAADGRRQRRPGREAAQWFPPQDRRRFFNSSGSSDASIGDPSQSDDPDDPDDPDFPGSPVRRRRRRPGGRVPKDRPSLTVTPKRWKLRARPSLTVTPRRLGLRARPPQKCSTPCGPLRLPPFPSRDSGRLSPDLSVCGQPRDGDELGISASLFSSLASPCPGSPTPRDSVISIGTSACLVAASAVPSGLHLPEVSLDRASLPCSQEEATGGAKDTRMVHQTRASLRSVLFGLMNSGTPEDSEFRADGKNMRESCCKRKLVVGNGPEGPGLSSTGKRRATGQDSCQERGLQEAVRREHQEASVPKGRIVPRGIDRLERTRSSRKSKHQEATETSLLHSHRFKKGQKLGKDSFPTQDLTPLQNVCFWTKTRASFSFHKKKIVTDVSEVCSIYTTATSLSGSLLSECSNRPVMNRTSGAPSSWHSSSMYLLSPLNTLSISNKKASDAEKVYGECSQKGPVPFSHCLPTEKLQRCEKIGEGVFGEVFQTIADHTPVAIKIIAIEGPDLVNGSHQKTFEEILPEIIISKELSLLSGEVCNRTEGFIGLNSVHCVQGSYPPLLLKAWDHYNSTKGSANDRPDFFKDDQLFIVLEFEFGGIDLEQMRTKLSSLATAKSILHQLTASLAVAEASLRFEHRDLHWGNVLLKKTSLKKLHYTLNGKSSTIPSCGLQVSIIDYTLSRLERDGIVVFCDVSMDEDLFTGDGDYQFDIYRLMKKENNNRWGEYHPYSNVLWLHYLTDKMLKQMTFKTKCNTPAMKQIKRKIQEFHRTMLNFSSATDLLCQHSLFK
# IRAK4(h) = biological target: T3, IRAK4(h) (Homo sapiens, UniProt Q9NWZ3); test: Kinase panel; assay type: biochemical
# T3 construct: purchased Millipore KinaseProfiler
# T3 sequence (Q9NWZ3 1-460): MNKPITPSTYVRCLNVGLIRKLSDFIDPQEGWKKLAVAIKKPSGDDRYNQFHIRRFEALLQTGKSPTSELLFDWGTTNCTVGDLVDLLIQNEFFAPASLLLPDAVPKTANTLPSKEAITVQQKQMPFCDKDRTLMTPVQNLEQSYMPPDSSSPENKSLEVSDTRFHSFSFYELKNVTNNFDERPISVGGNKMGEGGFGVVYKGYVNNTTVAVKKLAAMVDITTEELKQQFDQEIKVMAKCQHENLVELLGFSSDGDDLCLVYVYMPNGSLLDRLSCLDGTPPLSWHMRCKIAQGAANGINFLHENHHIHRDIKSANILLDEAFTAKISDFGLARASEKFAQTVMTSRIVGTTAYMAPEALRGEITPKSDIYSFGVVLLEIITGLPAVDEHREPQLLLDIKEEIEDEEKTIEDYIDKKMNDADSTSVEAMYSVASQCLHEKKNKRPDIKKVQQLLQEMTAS
# LOK(h) = biological target: T4, LOK(h) (Homo sapiens, UniProt O94804); test: Kinase panel; assay type: biochemical
# T4 construct: purchased Millipore KinaseProfiler
# MAPKAP-K3(h) = biological target: T5, MAPKAP-K3(h) (Homo sapiens, UniProt Q16644); test: Kinase panel; assay type: biochemical
# T5 construct: purchased Millipore KinaseProfiler
# SGK(h) = biological target: T6, SGK(h) (Homo sapiens, UniProt O00141); test: Kinase panel; assay type: biochemical
# T6 construct: purchased Millipore KinaseProfiler
# T6 sequence (O00141 1-431): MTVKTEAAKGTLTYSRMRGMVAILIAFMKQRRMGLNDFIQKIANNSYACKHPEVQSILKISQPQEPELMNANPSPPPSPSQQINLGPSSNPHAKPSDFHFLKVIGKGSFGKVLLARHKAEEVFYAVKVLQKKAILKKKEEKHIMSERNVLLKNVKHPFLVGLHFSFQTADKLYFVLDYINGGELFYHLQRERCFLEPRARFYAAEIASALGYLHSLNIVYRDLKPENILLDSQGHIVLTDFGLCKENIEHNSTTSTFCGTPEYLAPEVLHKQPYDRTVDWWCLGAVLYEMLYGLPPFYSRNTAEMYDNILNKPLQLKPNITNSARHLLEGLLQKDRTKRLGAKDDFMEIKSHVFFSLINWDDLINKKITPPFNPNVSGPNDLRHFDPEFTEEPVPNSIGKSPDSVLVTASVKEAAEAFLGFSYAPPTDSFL
# TSSK1(h) = biological target: T7, TSSK1(h) (Homo sapiens, UniProt Q9BXA7); test: Kinase panel; assay type: biochemical
# T7 construct: purchased Millipore KinaseProfiler
# T7 sequence (Q9BXA7 1-367): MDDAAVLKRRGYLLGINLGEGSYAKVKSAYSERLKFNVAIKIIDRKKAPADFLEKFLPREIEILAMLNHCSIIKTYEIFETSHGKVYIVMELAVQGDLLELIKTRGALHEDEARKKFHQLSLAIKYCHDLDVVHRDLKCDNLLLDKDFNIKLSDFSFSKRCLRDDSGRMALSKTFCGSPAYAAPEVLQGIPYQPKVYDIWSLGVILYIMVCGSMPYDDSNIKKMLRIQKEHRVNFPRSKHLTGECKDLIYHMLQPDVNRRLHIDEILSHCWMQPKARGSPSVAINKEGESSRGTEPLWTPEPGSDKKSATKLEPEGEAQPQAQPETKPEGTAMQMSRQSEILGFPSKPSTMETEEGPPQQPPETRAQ
# pGSK-3β in BT474 = test: phospho-GSK3β ELISA; assay type: cell-based; conditions: Homo sapiens, BT-474; BT474, 1 h, mean ± std dev
# Description: (§1) ELISA plates were prepared by coating with anti-GSK3β antibody (R&D Systems), and blocked with 5% Milk/0.1% Tween-20. Cells were seeded at 25,000 cells/96-well overnight and treated with DMSO or various concentrations of drug for 1 h. Cells were lysed in 20 mM Tris-HCl (pH 8.0), 137 mM NaCl, 2 mM EDTA, 10% glycerol and 1% Triton X-100 and lysates transferred to ELISA plates and incubated overnight. The plates were washed and incubated with rabbit anti-phospho-GSK3β (Ser9) antibody (R&D Systems) for 1 h. After washing, plates were developed using HRP-linked anti-rabbit IgG, and 3,3′,5,5′-tetramethylbenzidine as substrate. Absorption was measured in a microplate spectrophotometer at 450 nm. The phospho-PRAS40 ELISA followed similar methodology as above with the exception of using a commercially available PRAS40 (pThr246) kit (Biosource) and following manufacturers' instructions for the ELISA analysis.
# pGSK-3β in LNCaP = test: phospho-GSK3β ELISA; assay type: cell-based; conditions: Homo sapiens, 1 h, mean ± std dev
# Description: as §1
# T1 sequence (P22607 23-806): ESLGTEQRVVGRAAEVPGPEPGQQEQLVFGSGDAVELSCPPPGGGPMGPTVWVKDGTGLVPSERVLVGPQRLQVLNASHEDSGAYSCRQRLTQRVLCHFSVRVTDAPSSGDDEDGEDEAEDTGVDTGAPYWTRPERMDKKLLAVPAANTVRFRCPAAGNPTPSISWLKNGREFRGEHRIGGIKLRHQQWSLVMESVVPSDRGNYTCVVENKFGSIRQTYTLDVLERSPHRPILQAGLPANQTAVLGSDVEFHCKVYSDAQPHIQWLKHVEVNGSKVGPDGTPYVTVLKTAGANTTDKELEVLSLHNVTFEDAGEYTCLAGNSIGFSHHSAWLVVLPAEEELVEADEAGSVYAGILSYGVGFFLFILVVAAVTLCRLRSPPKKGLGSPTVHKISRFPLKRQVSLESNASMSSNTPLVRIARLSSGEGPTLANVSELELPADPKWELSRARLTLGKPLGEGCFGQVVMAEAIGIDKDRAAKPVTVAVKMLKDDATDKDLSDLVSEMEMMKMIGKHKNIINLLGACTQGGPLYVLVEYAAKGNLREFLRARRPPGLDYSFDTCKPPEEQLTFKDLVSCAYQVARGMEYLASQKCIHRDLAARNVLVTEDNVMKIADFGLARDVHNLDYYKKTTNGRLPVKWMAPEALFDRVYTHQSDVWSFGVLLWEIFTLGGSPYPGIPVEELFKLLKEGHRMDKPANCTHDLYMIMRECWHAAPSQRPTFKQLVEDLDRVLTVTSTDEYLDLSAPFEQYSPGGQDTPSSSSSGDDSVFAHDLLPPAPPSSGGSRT
# T4 sequence (O94804 whole entry): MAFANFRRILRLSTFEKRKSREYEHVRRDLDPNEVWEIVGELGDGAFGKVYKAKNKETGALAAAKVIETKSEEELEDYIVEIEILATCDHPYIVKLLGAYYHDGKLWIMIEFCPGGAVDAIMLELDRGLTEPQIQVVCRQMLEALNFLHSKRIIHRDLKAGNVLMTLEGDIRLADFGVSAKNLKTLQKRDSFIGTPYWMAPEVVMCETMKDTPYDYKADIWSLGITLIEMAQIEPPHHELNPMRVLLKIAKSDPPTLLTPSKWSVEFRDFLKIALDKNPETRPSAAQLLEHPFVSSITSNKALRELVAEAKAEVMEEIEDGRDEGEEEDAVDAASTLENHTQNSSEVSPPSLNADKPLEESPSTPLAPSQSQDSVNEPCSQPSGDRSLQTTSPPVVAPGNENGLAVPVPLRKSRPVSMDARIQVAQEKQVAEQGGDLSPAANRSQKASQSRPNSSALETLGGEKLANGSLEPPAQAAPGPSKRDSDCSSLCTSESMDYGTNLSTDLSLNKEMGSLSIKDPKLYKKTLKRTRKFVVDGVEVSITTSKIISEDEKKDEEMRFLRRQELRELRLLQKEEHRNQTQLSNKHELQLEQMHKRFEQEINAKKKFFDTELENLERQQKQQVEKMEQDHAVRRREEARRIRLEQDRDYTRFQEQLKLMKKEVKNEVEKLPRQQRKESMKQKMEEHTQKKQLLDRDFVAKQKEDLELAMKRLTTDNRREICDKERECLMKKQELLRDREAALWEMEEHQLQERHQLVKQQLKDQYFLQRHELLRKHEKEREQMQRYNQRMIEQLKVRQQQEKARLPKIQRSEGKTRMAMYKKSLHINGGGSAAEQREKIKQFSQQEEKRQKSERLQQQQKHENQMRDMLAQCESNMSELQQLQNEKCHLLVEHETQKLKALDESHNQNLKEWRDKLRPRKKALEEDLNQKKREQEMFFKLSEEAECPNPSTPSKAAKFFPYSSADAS
# T5 sequence (Q16644 whole entry): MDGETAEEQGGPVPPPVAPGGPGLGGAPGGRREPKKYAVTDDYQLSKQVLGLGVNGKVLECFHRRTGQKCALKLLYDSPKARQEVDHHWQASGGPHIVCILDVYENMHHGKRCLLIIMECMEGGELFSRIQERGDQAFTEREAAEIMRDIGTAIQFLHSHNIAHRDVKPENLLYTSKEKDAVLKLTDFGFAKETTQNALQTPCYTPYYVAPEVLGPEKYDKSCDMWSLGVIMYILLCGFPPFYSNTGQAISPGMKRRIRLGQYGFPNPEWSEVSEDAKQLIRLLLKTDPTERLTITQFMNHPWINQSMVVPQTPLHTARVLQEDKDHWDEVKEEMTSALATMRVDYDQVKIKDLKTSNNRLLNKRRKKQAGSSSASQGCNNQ
smiles,measurement,setting,value
Cn1ncc(Cl)c1-c1cc(C(=O)N[C@H](CN)Cc2cccc(F)c2)sc1Cl [GSK2110183],inhibition at 0.5 µM,FGFR3(h),-6%
same,inhibition at 10 µM,FGFR3(h),9%
same,inhibition at 0.5 µM,Haspin(h),46%
same,inhibition at 10 µM,Haspin(h),90%
same,inhibition at 0.5 µM,IRAK4(h),-15%
same,inhibition at 10 µM,IRAK4(h),-5%
same,inhibition at 0.5 µM,LOK(h),-9%
same,inhibition at 10 µM,LOK(h),5%
same,inhibition at 0.5 µM,MAPKAP-K3(h),4%
same,inhibition at 10 µM,MAPKAP-K3(h),10%
same,inhibition at 0.5 µM,SGK(h),36%
same,inhibition at 10 µM,SGK(h),87%
same,inhibition at 0.5 µM,TSSK1(h),16%
same,inhibition at 10 µM,TSSK1(h),84%
same,IC50,pGSK-3β in BT474,316 ± 91 nM
same,IC50,pGSK-3β in LNCaP,76 ± 16 nM
Cn1ncc(Cl)c1-c1cc(C(=O)N[C@H](CN)Cc2ccc(F)c(F)c2)oc1Cl [GSK2141795],inhibition at 0.5 µM,"FGFR3(h); 0.5 µM, read-out: % Inhibition",-14%
same,inhibition at 10 µM,"FGFR3(h); 10 µM, read-out: % Inhibition",2%
same,inhibition at 0.5 µM,"Haspin(h); 0.5 µM, read-out: % Inhibition",76%
same,inhibition at 10 µM,"Haspin(h); 10 µM, read-out: % Inhibition",101%
same,inhibition at 0.5 µM,"IRAK4(h); 0.5 µM, read-out: % Inhibition",-12%
same,inhibition at 10 µM,"IRAK4(h); 10 µM, read-out: % Inhibition",0%
same,inhibition at 0.5 µM,"LOK(h); 0.5 µM, read-out: % Inhibition",-14%
same,inhibition at 10 µM,"LOK(h); 10 µM, read-out: % Inhibition",11%
same,inhibition at 0.5 µM,"MAPKAP-K3(h); 0.5 µM, read-out: % Inhibition",-8%
same,inhibition at 10 µM,"MAPKAP-K3(h); 10 µM, read-out: % Inhibition",-2%
same,inhibition at 0.5 µM,"SGK(h); 0.5 µM, read-out: % Inhibition",47%
same,inhibition at 10 µM,"SGK(h); 10 µM, read-out: % Inhibition",90%
same,inhibition at 0.5 µM,"TSSK1(h); 0.5 µM, read-out: % Inhibition",21%
same,inhibition at 10 µM,"TSSK1(h); 10 µM, read-out: % Inhibition",83%
same,IC50,pGSK-3β in BT474,143 ± 21 nM
same,IC50,pGSK-3β in LNCaP,34 ± 5 nM
